Test results: ChEMBL document CHEMBL3507680, “University of Dundee, Gates Library screen for HepG2 cell viability”

Test: Human HepG2 cell viability assay in 384 well format
Format: toxicity, cell-based
Set-up: dose 125 nL, time 70.5 hour; concentration not given beside the values
Details: HepG2 cells, read-out: Inhibition

Row | SMILES | cytotoxicity at 70.5 h
1 | CN(C)c1nccnc1N1CC[C@@]2(O)CCNC[C@H]2C1 | 9.65%
2 | Cc1ccc(-c2nc(CC3CCN(C)CC3)no2)cc1N1CCNC1=O | -7.33%
3 | CC(C)Cc1cc(CNC(=O)c2ccccc2C2CCNC2)no1 (stereo not given) | -17.5%
4 | O=C(O)C1(Oc2ccc(Cl)cc2)CCN(C2CCOCC2)CC1 | -17.1%
5 | Cc1cc(CC(C)NC(=O)c2cccc(CC3CCNCC3)c2)[nH]n1 (stereo not given) | -2.93%
6 | CC(C)=CCN1C(=O)[C@H]2CC[C@@H]1CN(C(=O)CCc1nc(Cl)n[nH]1)C2 | -14.8%
7 | COc1ccccc1N1CCN(C(=O)CCn2ccc(C)n2)CC1(C)C | -5.62%
8 | Cc1ccc(C(=O)N2CCC3(CCC(=O)N(CCN(C)C)C3)CC2)nc1 | -3.11%
9 | CCOc1ccc(C(=O)CCC(=O)NCc2csc(N)n2)cc1C | -11.5%
10 | CC/C=C(\C)CN1CCC(CNC(=O)c2c[nH]c(=O)c(Cl)c2)C1 (stereo not given) | 12.8%
11 | CN(Cc1ccccn1)C(C(=O)O)c1ccc2c(c1)OCO2 (stereo not given) | -2.22%
12 | CN(Cc1cn(C2CCNCC2)nn1)CC1CCCO1 (stereo not given) | -9.31%
13 | CC(C)c1nccn1CCCNC(=O)c1ccc(-c2ccncc2)nc1 | 17.9%
14 | CCCN(CCc1ccccc1)C(=O)c1ccccc1NCC(=O)O | -7.74%
15 | CCc1cc(CN(C)C(=O)CN2CC3(CCNCC3)OC2=O)on1 | -2.42%
16 | COC[C@]1(O)CCN(C(=O)c2cccc(CN(C)C)c2)CC1(C)C | -5.34%
17 | O[C@H]1[C@H](NCCc2ccccn2)c2ccccc2C12CCNCC2 | 20.6%
18 | CC(=O)N1CCc2[nH]cnc2C12CCN(C(=O)CCn1cccn1)CC2 | 1.39%
19 | COc1ccc(C(=O)N2CCOCC(CO)C2)cc1N1CCOCC1 (stereo not given) | -3.09%
20 | CC(C)c1nccc(CN2CCC(O)(CN3CCCCC3)C2)n1 (stereo not given) | -4.46%
21 | O=C(CN1CCN(c2ncccn2)[C@@H]2CS(=O)(=O)C[C@@H]21)N1CCCCC1 | -1.85%
22 | Cc1nc(CCN2CCC(Oc3ccccc3F)CC2)c(C)s1 | 8.34%
23 | CCc1cnc(NCCSc2cnn[nH]2)nc1 | 28.2%

Row | SMILES | cytotoxicity at 70.5 h
24 | Cc1cc(C(=O)N2C[C@@H](CN3CCCCC3)[C@@H](CO)C2)ccc1O | -5.69%
25 | CC(C(=O)O)N1CCc2onc(-c3ccc(F)c(F)c3)c2C1 (stereo not given) | -6.87%
26 | CNC(=O)c1cn2cc(-c3ccccc3Cl)n(CC=C(C)C)c(=O)c2n1 | 35.1%
27 | CCC1CN(C(=O)c2cccnc2O)CCC(=O)N1Cc1ccccc1 (stereo not given) | -3.15%
28 | COc1ccccc1-c1noc(CCC(=O)NC(C)Cn2cccn2)n1 (stereo not given) | -3.38%
29 | CCNc1ncc(C(=O)N(C)C(C)c2ccc3c(c2)OCCO3)cn1 (stereo not given) | -2.94%
30 | CNC(=O)c1noc(CN2CC[C@](C)(O)[C@H](C)C2)n1 | -8.07%
31 | Cc1cccc(=O)n1CCC(=O)N1CCC2(CC1)OCCCC2O (stereo not given) | -3.41%
32 | CCc1csc(CNC2CCN(Cc3ccccc3)C2)n1 (stereo not given) | -8.44%
33 | CCNC(=O)[C@@H]1C[C@@H](N)CN1C(=O)C1(c2ccc(OC)cc2)CCCC1 | -9.96%
34 | CCN1CCN(C(C)(C)CNc2nc(C)cc(C3CCC3)n2)CC1 | -5.33%
35 | CCCc1ncc(CN(CCOC)Cc2cccs2)cn1 | -1.12%
36 | COc1cccn(CC(=O)N2CCCC3(CCCCC3)C2)c1=O | -4.6%
37 | O=C(O)c1nn(CC2CC2)c2c1CN(S(=O)(=O)c1cccnc1)CC2 | -11%
38 | Cc1cc(C)c2c(NC(C)c3nncn3C3CCCC3)ncnc2n1 (stereo not given) | -4.92%
39 | CN(C)[C@H]1CN(C(=O)CCc2cccc(F)c2)C[C@@H]1C1CC1 | -5.67%
40 | Cc1n[nH]c(CN2CCN(c3ncnc4scc(C)c34)CC2)c1Cl | -8.15%
41 | CCn1cc(-c2n[nH]c(=O)n2-c2ccc(OC)c(OC)c2)c(C)n1 | -4.02%
42 | Cn1c(CN2CCCCC2)nnc1C1CCN(c2nccc(N)n2)CC1 | -7.78%
43 | COc1cc(N(C)Cc2cc(C(C)(C)C)n[nH]2)ncn1 | 17.2%
44 | O=C(CC1=CSC2=NCCCN12)N1CCCCC1c1cccc(F)c1 (stereo not given) | 20.1%
45 | CN1C(=O)CC(C(=O)O)C12CCN(Cc1ccc(Cl)c(Cl)c1)CC2 (stereo not given) | -7.82%
46 | COc1ccc(OC2CCN(C(=O)C(C)Cn3cccn3)CC2)cc1 (stereo not given) | -2.17%

Row | SMILES | cytotoxicity at 70.5 h
47 | CN1CCc2nc(N(C)C)nc(N3CCC(O)CC3)c2C1 | -9.46%
48 | COc1cccn(CC(=O)N2CCCC3(CCCO3)CC2)c1=O (stereo not given) | -7.92%
49 | Cc1ccccc1S(=O)(=O)N1CCc2c(ncnc2N(C)C)C1 | 0.46%
50 | Cc1cccn2c(CNC(C)CO)cnc12 (stereo not given) | 40.8%
51 | C=C(C)COc1ccccc1C(=O)N(C)C(C)c1c(C)n[nH]c1C (stereo not given) | -2.31%
52 | Cc1cc(C)nc(NC2CCCN(CCCc3ccccc3)C2)n1 (stereo not given) | 54.5%
53 | CCN(CCn1cccn1)Cc1nc(-c2ccc(F)cc2)oc1C | -6.91%
54 | O=C(O)C(c1ccc2c(c1)OCCO2)N1CCC(N2CCSCC2)CC1 (stereo not given) | -1.86%
55 | CC(C)n1cnnc1CN(C)Cc1cnc(-c2cccs2)nc1 | 0.122%
56 | Cc1nn(C)c(C)c1CN(CCO)C(=O)C1COc2ccccc2C1 (stereo not given) | 30%
57 | CC(C)CN1CC2(CCN(C(=O)c3nc4ncccn4n3)CC2)CC1=O | -17.1%
58 | Cc1cc(C)n(CCN2CCOC(CNc3cccnn3)C2)n1 (stereo not given) | -4.33%
59 | CC(C)OCCCNC(=O)CS(=O)(=O)Cc1cccc(Cl)c1 | -10.6%
60 | Cc1ccc(C(=O)NCc2cccnc2N(C)C)s1 | -10.9%
61 | O=C(CC1CCCCC1)NC1CCCCNC1=O (stereo not given) | -9.32%
62 | O=C(CS(=O)(=O)Cc1ccc(F)cc1)NC1CCCCNC1=O (stereo not given) | -6.01%
63 | CC(NC(=O)c1ccoc1)c1ccc2c(c1)CCC(=O)N2 (stereo not given) | -0.0886%
64 | Cc1ccsc1CNC(=O)NC(C)c1ccc2c(c1)CCC(=O)N2 (stereo not given) | -13.4%
65 | CCCc1nnc(NC(=O)NC(C)Cn2cccn2)s1 (stereo not given) | -0.592%
66 | CCn1c(C(=O)N2CCCN(CC(N)=O)CC2)cc2ccccc21 | -3.29%
67 | COC(=O)C(NC(=O)C1CCC1)c1cc(F)ccc1F (stereo not given) | -7.83%
68 | NC(=O)C1CCN(C(=O)c2cccn2Cc2cccs2)C1 (stereo not given) | -0.693%
69 | c1ccc(-c2nnc(CN3CCCC3Cn3cncn3)o2)cc1 (stereo not given) | -0.362%

Row | SMILES | cytotoxicity at 70.5 h
70 | COC(=O)C(NC(=O)CCc1ccco1)c1cc(F)ccc1F (stereo not given) | -7.98%
71 | CCOCC(O)CN1CCN(C(=O)c2cc(Cl)ccc2F)CC1 (stereo not given) | 2.85%
72 | Fc1ccc(-c2nnc(CN3CCCC(Cn4cncn4)C3)o2)cc1 (stereo not given) | -5.49%
73 | CCOCC(O)CN1CCN(C(=O)c2cccc(OC)c2)CC1 (stereo not given) | -2.53%
74 | CCOCC(O)CN1CCN(C(=O)c2cc(F)cc(F)c2)CC1 (stereo not given) | -2.71%
75 | c1ccc(OCCCN2CCOC(CNc3cccnn3)C2)cc1 (stereo not given) | -6.97%
76 | COc1ccc(C)cc1CC(=O)NS(=O)(=O)c1ccc(C(N)=O)cc1 | -6.98%
77 | CC(=O)N1CCCC1C(=O)NCCOc1cccc(F)c1 (stereo not given) | -12.8%
78 | CC(=O)N1CCCC1C(=O)NCCOc1ccc(C(C)C)cc1 (stereo not given) | -1.19%
79 | CN(Cc1ccco1)C(=O)C1CSCN1C(=O)C1CCC1 (stereo not given) | -8.79%
80 | Cc1nc(C)c(CN2CCC(N(C)Cc3nnc(C4CC4)o3)C2)s1 (stereo not given) | -12.3%
81 | CCN(CC)Cc1ccc(C(=O)N2CCCC2c2cnn(C)c2)o1 (stereo not given) | 21.2%
82 | Cc1ccc(CN(C)C(=O)CN2CCCC(Cn3cncn3)C2)o1 (stereo not given) | -5.76%
83 | CC(=O)N1CCCC(C(=O)NCCOc2cc(C)cc(C)c2)C1 (stereo not given) | 18%
84 | CC(=O)NCc1ccc(C(=O)N2CCCC2c2c(C)nn(C)c2C)o1 (stereo not given) | -9.03%
85 | Cc1nn(C)c(C)c1C1CCCN1C(=O)CCc1ccco1 (stereo not given) | -1.9%
86 | CN(Cc1cccs1)C(=O)CN1CCCC(Cn2cncn2)C1 (stereo not given) | -5.28%
87 | Cc1ccc(CNC(=O)Nc2nncs2)cn1 | -6.07%
88 | Cc1ccc(CNC(=O)Nc2nccs2)cn1 | -4.14%
89 | Cc1ccc(-c2nc(CN3CCN(CCO)CC3)co2)cc1 | -9.54%
90 | CCOCCCn1c(NC(=O)c2cnc(C)s2)nc2ccccc21 | 4.48%
91 | CN(Cc1ccncc1)C(=O)[C@H]1CSCN1C(=O)OC(C)(C)C | -2.79%
92 | CN(Cc1ccsc1)C(=O)CN1CCCC(Cn2cncn2)C1 (stereo not given) | -5.89%

Row | SMILES | cytotoxicity at 70.5 h
93 | CC(=O)NCc1ccc(C(=O)N2CCCC2c2cnn(C)c2)s1 (stereo not given) | -0.6%
94 | Cc1csc(C2CCCCN2C(=O)c2cc(C)n(C)n2)n1 (stereo not given) | 25.5%
95 | Cc1csc(C2CCCCN2C(=O)c2cc(C(C)C)[nH]n2)n1 (stereo not given) | 1.99%
96 | Cc1nc(CN(C)C2CCN(Cc3ccc(Cl)s3)C2)no1 (stereo not given) | -4.8%
97 | N#Cc1ccsc1NC(=O)CCN1CCn2c(nnc2C2CC2)C1 | -7.52%
98 | N#Cc1ccsc1NC(=O)CN1CCn2c(nnc2C2CC2)C1 | -6.74%
99 | Cc1csc(C2CCCCN2C(=O)c2c[nH]c(C)n2)n1 (stereo not given) | 0.914%
100 | CCc1nnc(CN(C)C2CCCN(Cc3noc(C4CC4)n3)C2)o1 (stereo not given) | 12.1%
101 | Cc1cc(CN2CCC(N(C)Cc3noc(C4CC4)n3)C2)no1 (stereo not given) | 13%
102 | CC(C(=O)NCCN1CCN(C)CC1)n1cncn1 (stereo not given) | -7.19%
103 | CC1CCN(CCNC(=O)C(C)n2cncn2)CC1 (stereo not given) | -2.14%
104 | Cc1cc(C)n(CC2CCCN2CC(=O)Nc2cc(C(C)C)no2)n1 (stereo not given) | 14.2%
105 | COc1ccccc1CNC(=O)CNCCn1cc(C)cn1 | -13.5%
106 | c1ccc(Cc2noc(CN3CCc4cncnc4C3)n2)cc1 | -9.62%
107 | CCC(O)CN1CCN(C(=O)CCc2c(C)noc2Cl)CC1 (stereo not given) | -12.7%
108 | Cc1cnn(C2CN(CC(=O)NCC(C)C)C2)c1 | -13.6%
109 | CS(=O)(=O)c1ccc(C(=O)NCCNc2ncccn2)cc1 | -12.6%
110 | Cc1csc(CNC(=O)N2CCN(Cc3ccco3)CC2)n1 | -5.98%
111 | Cc1csc(CNC(=O)N2CCN(Cc3cc(C)on3)CC2)n1 | -3.55%
112 | COc1cc(CCC(=O)NC(C)C)ccc1OCC(F)(F)F | -18.5%
113 | O=C(Cc1ccc2c(c1)CCC2)NCCNc1cnccn1 | -16%
114 | Cc1cc(CN2CCN(C(=O)NCc3c(C)noc3C)CC2)on1 | -13.9%
115 | CN(Cc1cccc(OC(F)F)c1)Cc1nc2c(cnn2C)c(=O)[nH]1 | 2.1%
